Results: article PMC12444508, “Mechanistic Insights into the Anticancer Action of Novel 2‑Hydroxy-1,4-naphthoquinone Thiol Derivatives” (ACS Omega, 2025)

What was measured:
[1] = test system: HepG2 (liver cancer); assay: MTT cytotoxicity/selectivity, HepG2; type: cell-based; settings: vs normal oral fibroblasts
Method: (§1) Human SCC-4, SCC-9, and SCC-25 cells, derived from a human oral tongue SCC (squamous cell carcinoma), were obtained from ATCC (CRL-1624, CRL-1629, and CRL-1628, respectively) and maintained in 1:1 DMEM/F12 (Dulbecco’s modified Eagle’s medium and Ham’s F12 medium; Gibco (Thermo Fisher, Waltham, MA, USA)) supplemented with 10% (v/v) FBS (fetal bovine serum; Invitrogen, Thermo Fisher, Waltham, MA, USA) and 400 ng/mL hydrocortisone (Sigma-Aldrich Corporation, St. Louis, MO, USA). B16-F10 (melanoma; CRL-6475), HCT-116 (colorectal cancer; CCL-247), and HepG2 (liver cancer; HB-8065), in addition to primary normal human gingival fibroblasts obtained from ATCC (PCS-201-018), were maintained in DMEM supplemented with 10% (v/v) of FBS and were used in a maximum of six passages. Cells were grown in a humidified environment containing 5% CO2 at 37 °C. For all biological assays, compounds and shikonin were solubilized in 100% DMSO (all Sigma-Aldrich Corp.) to a final concentration of 10 mM and lapachol in ethanol. The carboplatin control was prepared in water (Fauldcarbo; Libbs Farmacêutica, São Paulo, SP, Brazil) and was used as a standard anticancer compound.
(§2) The viability of OSCC cell lines and primary human fibroblast cells was assessed using the MTT assay as in ref . Briefly, cells were grown in triplicate in 96-well plates (5 × 10^3 cells/well) until confluence. Then, the medium was removed, fresh medium was added, and the cells were returned to the incubator in the presence of different compounds. […] Then, the wells containing the cells were washed with PBS heated to 37 °C, the formazan crystals were dissolved in a solvent solution (DMSO/methanol 1:1 v/v), and the absorbance was read at 560 nm using an EPOCH microplate spectrophotometer (BioTek Instruments, Winooski, VT, USA) with the background absorbance at 670 nm subtracted. […]
(§3) Data are presented as means ± SD. […] The selectivity index was calculated as SI = IC50 of the compound in normal oral fibroblast cells/IC50 of the same compound for each oral cancer cell line (SCC-4, SCC-9, and SCC-25) and averaged when indicated.

[2] = test system: SCC-4 cells; assay: MTT cell viability assay, SCC-4; type: cell-based, human; settings: for IC50: Homo sapiens, SCC-4, 72 h, MTT, read-out: IC50 SCC-4; for selective index (SI) SCC-4: vs normal oral fibroblasts
Method: as §1
(§4) The viability of OSCC cell lines and primary human fibroblast cells was assessed using the MTT assay as in ref . Briefly, cells were grown in triplicate in 96-well plates (5 × 10^3 cells/well) until confluence. Then, the medium was removed, fresh medium was added, and the cells were returned to the incubator in the presence of different compounds. DMSO at the same concentration was used as a control for 100% cell viability. After 72 h, cells were incubated with 0.5 mg/mL of MTT reagent (3-(4,5-dimethyl-2-thiazolyl)-2,5-diphenyl-2-H-tetrazolium bromide) (Sigma-Aldrich Corporation, Louis, MO, USA) for 3.5 h. Then, the wells containing the cells were washed with PBS heated to 37 °C, the formazan crystals were dissolved in a solvent solution (DMSO/methanol 1:1 v/v), and the absorbance was read at 560 nm using an EPOCH microplate spectrophotometer (BioTek Instruments, Winooski, VT, USA) with the background absorbance at 670 nm subtracted. Control chemotherapeutics (carboplatin and shikonin) were used.
(§5) Data are presented as means ± SD. IC50 values for the MTT assays were obtained by nonlinear regression using the […] 8.4.3.0 program (Intuitive Software for Science, San Diego, CA, USA) from at least three independent experiments. A dose–response curve (inhibitor) vs response using the least-squares method was used to determine the IC50, SD, and R2 of the data. The selectivity index was calculated as SI = IC50 of the compound in normal oral fibroblast cells/IC50 of the same compound for each oral cancer cell line (SCC-4, SCC-9, and SCC-25) and averaged when indicated.

[3] = test system: SCC-9 cells (OSCC cells); assay: MTT cell viability assay, SCC-9; type: cell-based, human; settings: for IC50: Homo sapiens, SCC-9, 72 h, MTT, read-out: IC50 SCC-9 oral cancer; for SI (SCC-9): IC50 normal oral fibroblast / IC50 SCC-9
Method: as §1, §4, §5

[4] = test system: B16-F10 (melanoma); assay: MTT cytotoxicity/selectivity, B16-F10; type: cell-based; settings: vs normal oral fibroblasts
Method: as §1, §2, §3

[5] = test system: SCC-25 cells; assay: MTT cell viability assay, SCC-25; type: cell-based, human; settings: for IC50: Homo sapiens, SCC-25, 72 h, MTT, read-out: IC50 SCC-25; for selective index (SI) SCC-25: vs normal oral fibroblasts
Method: as §1, §4, §5

[6] = test system: active caspase 3/7 in SCC-9 cells; assay: Active caspase 3/7 staining; type: cell-based, human; settings: 2 × IC50, 24 h
Method: The following reagents were used in this assay: CellEvent Caspase-3/7 Green Ready Probes Reagent kit (R37111, Thermo Fisher, Waltham, Massachusetts, USA). SCC-9 cells were plated in 24-well microplates in the amount of 5 × 10^4 cells per well as previously described in ref . […] The duration of the treatment time was 24 h. After this period, the cells were taken to the Zeiss Axio Observer A1 fluorescence optical microscope (Zeiss, Oberkochen, Baden-Württemberg, Germany) to obtain caspase labeling images from five different fields. Data quantification was performed using the ImageJ program, and the values of reactive cells for caspase were compared in relation to the total number of cells per field, and the result was given as a percentage.

[7] = test system: HCT-116 (colorectal cancer); assay: MTT cytotoxicity/selectivity, HCT-116; type: cell-based; settings: vs normal oral fibroblasts
Method: as §1, §2, §3

[8] = test system: primary normal human gingival fibroblasts; assay: MTT cell viability assay, primary gingival fibroblasts; type: cell-based; settings: Homo sapiens, Fibroblast; 72 h, MTT; read-out: IC50 primary gingival fibroblast
Method: as §1, §4, §5

[9] = test system: SCC-9-LC3-GFP cells; assay: Autophagy assay (LC3-GFP puncta); type: cell-based, human; settings: 1 × IC50, 48 h
Method: To determine whether compounds 7a and 7e induce autophagy, SCC-9 cells were stably transduced with the plasmid expressing LC3-GFP as described. […] As a positive control, we used compound 8 (Supplementary Figure S1), an already described naphthoquinone-triazole-coumarin hybrid, able to induce autophagy at its IC50 concentration, 30 μM. After 48 h, the cells were visualized using a Zeiss Axio Observer A1 Fluorescence Optical Microscope (Zeiss, Oberkochen, Baden-Württemberg, Germany) to observe the formation of typical autophagy spots and photographed using a high-resolution monochromatic microscopy camera (Axiocam 503 mono, resolution: 1936 × 1460 pixels, pixel size: 4.54 μm × 4.54 μm) to maximize sensitivity and image quality.

[10] = test system: OSCC cell lines (SCC-4, SCC-9, and SCC-25); assay: Average selectivity index over three OSCC cell lines (MTT); type: cell-based, human; settings: average of SI for SCC-4, SCC-9 and SCC-25 vs normal oral fibroblasts
Method: as §1, §4, §5

SMILES | selective index (SI) HepG2 hepatocellular carcinoma [1] | IC50 [2] [µM] | selective index (SI) SCC-4 [2] | IC50 [3] [µM] | SI (SCC-9) [3] | selective index (SI) B16-F10 melanoma [4] | IC50 [5] [µM] | selective index (SI) SCC-25 [5] | cells with positive staining for active caspases 3 and 7 [6] [%] | selective index (SI) HCT-116 colon cancer [7] | IC50 [8] [µM] | cells with LC3-positive puncta (autophagosome formation) [9] [%] | average SI [10]
COc1ccc(SC2C3=C(OC(C)(C)C2Sc2ccc(OC)cc2)C(=O)c2ccccc2C3=O)cc1 (stereo not shown) [7e, 3,4-Bis((4-methoxyphenyl)thio)-2,2-dimethyl-3,4-dihydro-2H-benzo[g]chromene-5,10-dione] | 3.4 | 57.1 | 1.9 | 46.5 | 2.4 | 7.5 | 13 | 8.5 | 78.6 | 9.1 | 110 | 7.4 | 
CC1(C)OC2=C(C(=O)c3ccccc3C2=O)C(Sc2ccccc2)C1Sc1ccccc1 (stereo not shown) [7a, 2,2-Dimethyl-3,4-bis(phenylthio)-3,4-dihydro-2H-benzo[g]chromene-5,10-dione] | 2.1 | 10.6 | 5.4 | 26.3 | 2.2 | 1.4 | 28.2 | 2.0 | 71 | 2.7 | 57.3 | 20.5 | 3.2
